In patent US20210070748A1, “INHIBITORS OF BRUTONS TYROSINE KINASE” (Pharmacyclics LLC, priority 2015, published 2021):

Columns and labels:
Assay type in all cases: biochemical
[1] = biological target: T1, TEC (Homo sapiens, UniProt P42680); assay: Inhibition of a panel of kinases, in vitro HotSpot kinase assay: TEC; conditions: D-compounds panel data; 1 μM ATP
T1 sequence (P42680 1-631): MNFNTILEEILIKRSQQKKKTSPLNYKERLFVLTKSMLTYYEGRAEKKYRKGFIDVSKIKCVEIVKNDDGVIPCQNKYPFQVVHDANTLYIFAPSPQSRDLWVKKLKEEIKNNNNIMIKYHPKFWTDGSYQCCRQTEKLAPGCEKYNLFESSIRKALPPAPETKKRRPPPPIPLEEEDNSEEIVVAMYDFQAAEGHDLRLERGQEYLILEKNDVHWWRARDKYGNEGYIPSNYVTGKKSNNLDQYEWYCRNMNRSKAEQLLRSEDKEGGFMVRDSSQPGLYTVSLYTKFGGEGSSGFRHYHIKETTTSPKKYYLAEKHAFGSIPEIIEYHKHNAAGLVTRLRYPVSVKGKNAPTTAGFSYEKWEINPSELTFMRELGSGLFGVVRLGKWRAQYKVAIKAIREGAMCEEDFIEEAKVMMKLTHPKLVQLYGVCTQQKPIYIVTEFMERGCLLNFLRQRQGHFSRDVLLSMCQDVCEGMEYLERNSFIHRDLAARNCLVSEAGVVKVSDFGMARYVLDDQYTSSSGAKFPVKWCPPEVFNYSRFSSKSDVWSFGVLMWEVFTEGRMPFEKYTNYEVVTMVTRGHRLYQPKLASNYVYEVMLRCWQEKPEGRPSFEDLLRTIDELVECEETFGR
Protocol: (§1) The degree of inhibition of a panel of kinases is determined using the in vitro HotSpot kinase assay (purified enzymes, ^33P-ATP, an appropriate substrate and 1 μM ATP).

[2] = biological target: EGFR (Homo sapiens, UniProt P00533); assay: Inhibition of a panel of kinases, in vitro HotSpot kinase assay: EGFR; conditions: D-compounds panel data; 1 μM ATP
EGFR, sequence (P00533 25-1210): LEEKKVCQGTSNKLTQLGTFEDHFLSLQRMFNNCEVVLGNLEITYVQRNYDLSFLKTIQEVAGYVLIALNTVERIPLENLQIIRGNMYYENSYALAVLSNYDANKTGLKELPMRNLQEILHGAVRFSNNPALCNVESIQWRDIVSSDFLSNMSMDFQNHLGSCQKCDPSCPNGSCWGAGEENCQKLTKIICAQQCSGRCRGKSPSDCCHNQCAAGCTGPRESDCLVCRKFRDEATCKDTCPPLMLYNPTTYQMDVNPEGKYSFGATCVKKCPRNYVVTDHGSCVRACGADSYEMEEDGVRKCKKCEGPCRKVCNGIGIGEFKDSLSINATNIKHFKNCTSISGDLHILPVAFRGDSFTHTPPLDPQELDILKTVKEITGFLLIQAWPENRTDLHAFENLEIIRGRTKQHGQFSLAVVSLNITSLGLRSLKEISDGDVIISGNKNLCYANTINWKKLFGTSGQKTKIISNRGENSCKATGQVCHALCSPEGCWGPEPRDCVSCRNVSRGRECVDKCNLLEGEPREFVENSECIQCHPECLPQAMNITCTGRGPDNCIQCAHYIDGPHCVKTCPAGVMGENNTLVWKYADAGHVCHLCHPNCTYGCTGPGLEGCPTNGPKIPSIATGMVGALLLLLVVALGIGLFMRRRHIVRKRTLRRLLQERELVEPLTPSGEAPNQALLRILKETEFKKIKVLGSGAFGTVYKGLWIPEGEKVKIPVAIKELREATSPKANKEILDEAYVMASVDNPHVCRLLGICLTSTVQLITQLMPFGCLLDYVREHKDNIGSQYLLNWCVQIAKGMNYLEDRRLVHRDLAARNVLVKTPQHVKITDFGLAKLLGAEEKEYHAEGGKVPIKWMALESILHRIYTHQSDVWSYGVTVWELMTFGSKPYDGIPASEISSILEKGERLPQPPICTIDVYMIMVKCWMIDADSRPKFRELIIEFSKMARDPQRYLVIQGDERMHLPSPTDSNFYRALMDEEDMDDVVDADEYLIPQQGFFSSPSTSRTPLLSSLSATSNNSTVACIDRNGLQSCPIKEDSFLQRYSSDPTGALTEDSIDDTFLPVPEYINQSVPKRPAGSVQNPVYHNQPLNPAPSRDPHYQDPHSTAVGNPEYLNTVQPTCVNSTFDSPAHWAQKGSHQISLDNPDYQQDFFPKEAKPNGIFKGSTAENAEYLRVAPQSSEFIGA
Protocol: as §1

[3] = biological target: LCK (Homo sapiens, UniProt P06239); assay: Inhibition of a panel of kinases, in vitro HotSpot kinase assay: LCK; conditions: D-compounds panel data; 1 μM ATP; read-out: IC50 LCK
LCK, sequence (P06239 whole entry): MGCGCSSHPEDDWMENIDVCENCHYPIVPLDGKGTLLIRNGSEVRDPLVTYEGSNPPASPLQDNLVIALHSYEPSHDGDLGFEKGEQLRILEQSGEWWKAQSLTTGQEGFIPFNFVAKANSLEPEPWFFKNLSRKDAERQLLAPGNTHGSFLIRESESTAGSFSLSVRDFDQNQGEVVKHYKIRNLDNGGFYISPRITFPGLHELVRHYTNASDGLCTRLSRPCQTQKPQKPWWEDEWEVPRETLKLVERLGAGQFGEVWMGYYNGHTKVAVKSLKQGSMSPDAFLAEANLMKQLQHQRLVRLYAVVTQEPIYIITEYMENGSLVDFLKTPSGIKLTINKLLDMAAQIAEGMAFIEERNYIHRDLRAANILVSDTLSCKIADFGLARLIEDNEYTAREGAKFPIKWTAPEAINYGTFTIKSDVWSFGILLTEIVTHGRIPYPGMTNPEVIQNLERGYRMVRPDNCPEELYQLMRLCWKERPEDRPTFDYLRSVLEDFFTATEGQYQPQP

[4] = biological target: T2, BTK-WT (Homo sapiens, UniProt Q06187); assay: Btk in vitro inhibitory activity (one of Method A TR-FRET, Method B electrophoretic mobility shift, Method C radiometric filter binding); conditions: D-compounds panel data; read-out: IC50 BTK-WT
T2 construct: purified from insect cells as a full-length construct containing an N-terminal 6X-His tag; His6 (N); made in house; host or cells: insect cells (baculovirus Sf21 in Method B)
T2 sequence (Q06187 whole entry): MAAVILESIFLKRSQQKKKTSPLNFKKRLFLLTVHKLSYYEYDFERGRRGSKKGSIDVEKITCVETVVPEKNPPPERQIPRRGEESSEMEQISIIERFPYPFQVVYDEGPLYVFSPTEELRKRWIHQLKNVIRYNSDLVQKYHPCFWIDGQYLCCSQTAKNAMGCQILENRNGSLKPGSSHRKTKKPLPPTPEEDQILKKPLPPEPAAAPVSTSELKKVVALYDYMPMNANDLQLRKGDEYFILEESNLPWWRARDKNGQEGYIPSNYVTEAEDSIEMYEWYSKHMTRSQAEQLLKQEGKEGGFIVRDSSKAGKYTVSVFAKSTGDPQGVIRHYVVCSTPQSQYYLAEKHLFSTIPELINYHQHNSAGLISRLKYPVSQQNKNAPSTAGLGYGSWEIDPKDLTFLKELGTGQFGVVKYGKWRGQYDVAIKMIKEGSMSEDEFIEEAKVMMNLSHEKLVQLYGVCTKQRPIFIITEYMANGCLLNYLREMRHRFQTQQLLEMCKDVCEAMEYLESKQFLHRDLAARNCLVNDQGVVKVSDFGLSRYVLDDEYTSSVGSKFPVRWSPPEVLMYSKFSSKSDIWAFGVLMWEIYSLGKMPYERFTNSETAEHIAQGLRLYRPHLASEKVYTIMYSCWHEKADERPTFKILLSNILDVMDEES

[5] = biological target: T3, ITK (Homo sapiens, UniProt Q08881); assay: Inhibition of a panel of kinases, in vitro HotSpot kinase assay: ITK; conditions: D-compounds panel data; 1 μM ATP
T3 sequence (Q08881 1-620): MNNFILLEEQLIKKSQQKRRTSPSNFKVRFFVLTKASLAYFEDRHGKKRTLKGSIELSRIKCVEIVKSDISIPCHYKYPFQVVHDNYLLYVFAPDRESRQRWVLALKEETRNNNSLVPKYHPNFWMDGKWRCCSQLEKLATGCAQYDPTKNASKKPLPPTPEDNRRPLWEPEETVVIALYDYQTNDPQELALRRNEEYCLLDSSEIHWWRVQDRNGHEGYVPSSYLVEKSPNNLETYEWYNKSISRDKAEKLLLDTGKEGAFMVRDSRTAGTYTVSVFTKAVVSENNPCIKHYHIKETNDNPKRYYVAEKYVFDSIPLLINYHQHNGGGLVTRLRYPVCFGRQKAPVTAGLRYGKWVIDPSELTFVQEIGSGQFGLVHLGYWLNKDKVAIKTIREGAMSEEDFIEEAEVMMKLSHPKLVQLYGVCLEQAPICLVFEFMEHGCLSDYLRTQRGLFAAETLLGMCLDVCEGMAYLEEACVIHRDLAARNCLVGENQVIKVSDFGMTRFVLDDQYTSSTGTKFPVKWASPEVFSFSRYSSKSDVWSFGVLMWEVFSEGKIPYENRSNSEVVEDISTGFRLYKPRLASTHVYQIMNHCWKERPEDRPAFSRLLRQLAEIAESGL
Protocol: as §1

IC50 [1] [nM] | IC50 [2] [nM] | IC50 [3] [nM] | IC50 [4] [nM] | IC50 [5] [nM] | SMILES
100 to 1000 | 100 to 1000 | 10 to 100 | 10 to 100 | > 10000 | C/C=C/c1ccc(C(=O)N[C@@H]2CCCN(c3cnc(C(N)=O)c(Nc4cc(C)ns4)c3)[C@@H]2C)c(F)c1 [Example D-170, 5-[(2R,3R)-3-{2-fluoro-4-[(1E)-prop-1-en-1-yl]benzamido}-2-methylpiperidin-1-yl]-3-[(3-methyl-1,2-thiazol-5-yl)amino]pyridine-2-carboxamide]
1000 to 10000 | > 10000 | > 10000 | 100 to 1000 | 1000 to 10000 | CN1CCN(c2ccc(Nc3nc(N4CCC[C@@H](n5ccc6cc(C7CC7)ccc6c5=O)C4)cnc3C(N)=O)nc2)CC1 [Example D-179, 5-[(3R)-3-(6-cyclopropyl-1-oxo-1,2-dihydroisoquinolin-2-yl)piperidin-1-yl]-3-{[5-(4-methylpiperazin-1-yl)pyridin-2-yl]amino}pyrazine-2-carboxamide]
1000 to 10000 | > 10000 | > 10000 | 1000 to 10000 | 1000 to 10000 | Cn1cc(Nc2nc(N3CCC(F)(F)[C@H](NC(=O)c4ccc(C5CC5)cc4)C3)cnc2C(N)=O)cn1 [Example D-192, 5-[(3R)-3-(4-cyclopropylbenzamido)-4,4-difluoropiperidin-1-yl]-3-[(1-methyl-1H-pyrazol-4-yl)amino]pyrazine-2-carboxamide]
100 to 1000 | 1000 to 10000 | 100 to 1000 | ≤ 10 | 1000 to 10000 | C[C@@H]1[C@H](NC(=O)c2ccc(C3CC3)cc2F)CCCN1c1cnc(C(N)=O)c(Nc2ccc(N3CCN(C)CC3)nc2)n1 [Example D-13, 5-[(2R,3R)-3-(4-cyclopropyl-2-fluorobenzamido)-2-methylpiperidin-1-yl]-3-{[6-(4-methylpiperazin-1-yl)pyridin-3-yl]amino}pyrazine-2-carboxamide]
≤ 10 | 1000 to 10000 | 100 to 1000 | ≤ 10 | 100 to 1000 | C[C@@H]1[C@H](NC(=O)c2ccc(C(C)(C)O)cc2)CCCN1c1cnc(C(N)=O)c(Nc2cnn(C)c2)n1 [Example D-194, 5-[(2R,3R)-3-[4-(2-hydroxypropan-2-yl)benzamido]-2-methylpiperidin-1-yl]-3-[(1-methyl-1H-pyrazol-4-yl)amino]pyrazine-2-carboxamide]
100 to 1000 | 1000 to 10000 | 100 to 1000 | ≤ 10 | 100 to 1000 | C[C@@H]1[C@H](NC(=O)c2ccc(C3CC3)c(Cl)c2)CCCN1c1cnc(C(N)=O)c(Nc2ccc(N3CCN(C)CC3)cc2)n1 [Example D-17, 5-[(2R,3R)-3-(3-chloro-4-cyclopropylbenzamido)-2-methylpiperidin-1-yl]-3-{[4-(4-methylpiperazin-1-yl)phenyl]amino}pyrazine-2-carboxamide]
10 to 100 | 100 to 1000 | 100 to 1000 | ≤ 10 | 100 to 1000 | C[C@@H]1[C@H](NC(=O)c2ccc(SC(F)(F)F)cc2)CCCN1c1cnc(C(N)=O)c(Nc2ccc(N3CCN(C)CC3)cc2)n1 [Example D-233, 5-[(2R,3R)-2-methyl-3-{4-[(trifluoromethyl)sulfanyl]benzamido}piperidin-1-yl]-3-{[4-(4-methylpiperazin-1-yl)phenyl]amino}pyrazine-2-carboxamide]
≤ 10 | 1000 to 10000 | 100 to 1000 | ≤ 10 | 100 to 1000 | Cc1nc2cc(C(=O)N[C@@H]3CCCN(c4cnc(C(N)=O)c(Nc5cnn(C)c5)n4)[C@@H]3C)ccc2s1 [Example D-242, N-[(2R,3R)-1-{5-carbamoyl-6-[(1-methyl-1H-pyrazol-4-yl)amino]pyrazin-2-yl}-2-methylpiperidin-3-yl]-2-methyl-1,3-benzothiazole-5-carboxamide]
10 to 100 | 1000 to 10000 | 100 to 1000 | ≤ 10 | 1000 to 10000 | C[C@@H]1[C@H](NC(=O)c2ccc(C(C)(C)C)cc2F)CCCN1c1cnc(C(N)=O)c(Nc2cnn(C)c2)n1 [Example D-223, 5-[(2R,3R)-3-(4-tert-butyl-2-fluorobenzamido)-2-methylpiperidin-1-yl]-3-[(1-methyl-1H-pyrazol-4-yl)amino]pyrazine-2-carboxamide]
10 to 100 | 100 to 1000 | 100 to 1000 | ≤ 10 | 100 to 1000 | C[C@@H]1[C@H](NC(=O)c2ccc(C(O)(C(F)(F)F)C(F)(F)F)cc2)CCCN1c1cnc(C(N)=O)c(Nc2cnn(C)c2)n1 [Example D-240, 5-[(2R,3R)-3-[4-(1,1,1,3,3,3-hexafluoro-2-hydroxypropan-2-yl)benzamido]-2-methylpiperidin-1-yl]-3-[(1-methyl-1H-pyrazol-4-yl)amino]pyrazine-2-carboxamide]
10 to 100 | 1000 to 10000 | 10 to 100 | ≤ 10 | 1000 to 10000 | C[C@@H]1[C@H](NC(=O)c2ccc(C(C)(C)C)s2)CCCN1c1cnc(C(N)=O)c(Nc2cnn(C)c2)n1 [Example D-229, 5-[(2R,3R)-3-(5-tert-butylthiophene-2-amido)-2-methylpiperidin-1-yl]-3-[(1-methyl-1H-pyrazol-4-yl)amino]pyrazine-2-carboxamide]
≤ 10 | 100 to 1000 | 10 to 100 | ≤ 10 | 10 to 100 | C[C@@H]1[C@H](NC(=O)c2ccc(S(C)(=O)=O)cc2)CCCN1c1cnc(C(N)=O)c(Nc2ccc(N3CCN(C)CC3)cc2)n1 [Example D-227, 5-[(2R,3R)-3-(4-methanesulfonylbenzamido)-2-methylpiperidin-1-yl]-3-{[4-(4-methylpiperazin-1-yl)phenyl]amino}pyrazine-2-carboxamide]
10 to 100 | 1000 to 10000 | 100 to 1000 | ≤ 10 | 1000 to 10000 | C[C@@H]1[C@H](NC(=O)c2ccc(S(F)(F)(F)(F)F)cc2)CCCN1c1cnc(C(N)=O)c(Nc2cnn(C)c2)n1 [Example D-230, 3-[(1-methyl-1H-pyrazol-4-yl)amino]-5-[(2R,3R)-2-methyl-3-[4-(pentafluoro-λ^6-sulfanyl)benzamido]piperidin-1-yl]pyrazine-2-carboxamide]
1000 to 10000 | > 10000 | > 10000 | 1000 to 10000 | > 10000 | CC(C)c1ccc(S(=O)(=O)N[C@@H]2CCCN(c3cnc(C(N)=O)c(Nc4cnn(C)c4)n3)[C@@H]2C)cc1 [Example D-220, 3-[(1-methyl-1H-pyrazol-4-yl)amino]-5-[(2R,3R)-2-methyl-3-[4-(propan-2-yl)benzenesulfonamido]piperidin-1-yl]pyrazine-2-carboxamide]

SMILES | IC50 [1] [nM] | IC50 [2] [nM] | IC50 [3] [nM] | IC50 [4] [nM] | IC50 [5] [nM]
Cn1cc(Nc2nc(N3C4CCC(NC(=O)c5ccc(C6CC6)cc5)C3CC4)cnc2C(N)=O)cn1 (single isomer, unassigned) [Example D-200, 5-[2-(4-cyclopropylbenzamido)-8-azabicyclo[32.1]octan-8-yl]-3-[(1-methyl-1H-pyrazol-4-yl)amino]pyrazine-2-carboxamide] | 1000 to 10000 | 1000 to 10000 | 1000 to 10000 | 100 to 1000 | > 10000
Cn1cc(Nc2nc(N3C4CCC(NC(=O)c5ccc(C6CC6)cc5)C3CC4)cnc2C(N)=O)cn1 (single isomer, unassigned) [Example D-201, 5-[2-(4-cyclopropylbenzamido)-8-azabicyclo[3.2.1]octan-8-yl]-3-[(1-methyl-1H-pyrazol-4-yl)amino]pyrazine-2-carboxamide] | ≤ 10 | 1000 to 10000 | 100 to 1000 | ≤ 10 | 1000 to 10000
